Results reported in ChEMBL document CHEMBL1150555, “Anti-histaminic activity of bromopyrrole alkaloids isolated from Caribbean Agelas sponges” (Bioorg Med Chem Lett, 1997).
Active and inactive are the calls of the source. The calls are words filed in the database; no cut-off is given here.

What was measured:
[1] = tested on: Agelas clathrodes; experiment: Distribution in Carribean Agelas clathrodes was determined and expressed as % dry weight; type: functional
[2] = species on record: Cavia porcellus; experiment: Apparent affinity towards histamine receptor was determined and expressed as pD2
[3] = tested on: agelas longissima; experiment: Distribution in Carribean Agelas longissima was determined and expressed as % dry weight; type: functional
[4] = tested on: Agelas conifera; experiment: Distribution in Carribean Agelas conifera was determined and expressed as % dry weight; type: functional
[5] = tested on: Agelas dispar; experiment: Distribution in Carribean Agelas dispar was determined and expressed as % dry weight; type: functional
[6] = species on record: Cavia porcellus; experiment: Apparent affinity towards histamine receptor was determined and expressed as pD2; IA = Inactive

pD2 [2]	pD2 [6]	Structure (SMILES)	Dry weight [1] [%]	Dry weight [3] [%]	Dry weight [4] [%]	Dry weight [5] [%]
	inactive	C[N+]1=CNC[C@]1(C)CC(NC(=O)c1cc(Br)c[nH]1)C(=O)[O-] (stereo not given in full)	7.2	0	0	0
4.24		Nc1nc([C@H]2[C@H](CNC(=O)c3cc(Br)c[nH]3)[C@@H](CNC(=O)c3cc(Br)c[nH]3)[C@@H]2c2c[nH]c(N)n2)c[nH]1	15.1	2.5	8.8	15.5
5.52		NC1=N/C(=C\CCNC(=O)c2cc(Br)c(Br)[nH]2)C(=O)N1	3.2	1.1	0.8	3.5
4.02		Nc1ncc(/C=C/CNC(=O)c2cc(Br)c(Br)[nH]2)[nH]1	2.1	4.1	2.1	4.2

The remaining lines, values behind:

Structure (SMILES)	pD2 [2]	pD2 [6]	Dry weight [1] [%]	Dry weight [3] [%]	Dry weight [4] [%]	Dry weight [5] [%]
NC1=N/C(=C\C(O)CNC(=O)c2cc(Br)c[nH]2)C(=O)N1 (stereo not given)	4.34		0.5	3.3	3.5	0.2
NC1=N/C(=C\CCNC(=O)c2cc(Br)c[nH]2)C(=O)N1	5.33		0.5	3.3	3.5	0.2
NC1=N/C(=C\C(O)CNC(=O)c2cc(Br)c(Br)[nH]2)C(=O)N1 (stereo not given)	4.48		3.2	1.1	0.8	3.5
